Test results: patent US5045544A, “N'-alkyl-spiro-isoquinoline-pyrrolidine tetrones and analogs thereof useful as aldose reductase inhibitors” (American Home Products Corporation, priority 1990, dated 1991)

Legend:
[1] = system: diaphragm; assay: dulcitol (galactitol) accumulation in the diaphragm of galactose-fed (galactosemic) rats; format: in vivo, rat (Sprague-Dawley); conditions: 4 days
Source text: (§1) The aldose reductase inhibiting property of the compounds of this invention and the utilization of the compounds in preventing, diminishing and alleviating diabetic complications are demonstrable in experiments using galactosemic rats, see Dvornik et al., Science, 182, 1146 (1973). Such experiments are exemplified hereinbelow after the listing of the following general comments pertaining to these experiments:
(§2) (a) Four or more groups of six male rats, 50-70 g, Sprague-Dawley strain, were used. The first group, the control group, was fed a mixture of laboratory chow (rodent Laboratory Chow, Purina) and glucose at 20% (w/w %) concentration. An untreated galactosemic group was fed a similar diet in which galactose was substituted for glucose. The third group was fed a diet prepared by mixing a given amount of the test compound with the galactose containing diet. The concentration of galactose in the diet of the treated groups was the same as that for the untreated galactosemic group.
(§3) (b) After four days, the animals were killed by euthanization. Both the lens and sciatic nerve were removed, weighed and stored frozen for polyol determination.
(§4) (c) The polyol determination was performed by a modification of the procedure of M. Kraml and L. Cosyns, Clin. Biochem., 2, 373 (1969). Only two minor reagent changes were made: (a) the rinsing mixture was an aqueous 5% (w/v) trichloroacetic acid solution and (b) the stock solution was prepared by dissolving 25 mg of dulcitol in 100 ml of an aqueous trichloroacetic acid solution. [N.B.: For each experiment the average value found in the tissue from rats fed the glucose diet was substracted from the individual values found in the corresponding tissue in galactose-fed rats to obtain the amount of polyol accumulated.] The aldose reductase inhibiting effects of the compounds of formula (I) were also tested by employing an in vitro testing procedure similar to that described by S. Hayman and J. H. Kinoshita, J. Biol. Chem., 240, 877 (1965). In the present case the procedure of Hayman and Kinoshita was modified in that the final chromatography step was omitted in the preparation of the enzyme from bovine lens.
(§5) The figures under L, N, and D represent the percentage decrease of dulcitol accumulation in the tissues of the lens, sciatic nerve, and diaphragm, respectively, for treated rats as compared to untreated rats.

[2] = biological target: T1, aldose reductase (Bos taurus, UniProt P16116); assay: in vitro aldose reductase inhibition (modified Hayman and Kinoshita procedure, enzyme from bovine lens); format: biochemical; conditions: for inhibition at 1 µM: 10^-6 M; for inhibition at 10 µM: 10^-5 M
T1 construct: preparation of the enzyme from bovine lens; from tissue; host or cells: bovine lens
Method: as §4

[3] = system: sciatic nerve; assay: dulcitol (galactitol) accumulation in the sciatic nerve of galactose-fed (galactosemic) rats; format: in vivo, rat (Sprague-Dawley); conditions: 4 days
Source text: as §1, §2, §3, §4, §5

[4] = system: lens; assay: dulcitol (galactitol) accumulation in the lens of galactose-fed (galactosemic) rats; format: in vivo, rat (Sprague-Dawley); conditions: 10.2 mg/kg in diet, 4 days
Source text: as §1, §2, §3
(c) The polyol determination was performed by a modification of the procedure of M. Kraml and L. Cosyns, Clin. Biochem., 2, 373 (1969). […]

`CCN1C(=O)CC2(C1=O)C(=O)N(Cc1nc3cc(C(F)(F)F)ccc3s1)C(=O)c1ccc(F)cc12` (centres unmarked) [R1=F, R4=C2 H5, R5=CF3, 1'-ethyl-6-fluoro-2-[[5-(trifluoromethyl)-2-benzothiazolyl]methyl]spiro[isoquinoline-4(1H),3'-pyrrolidine]-1,2',3,5'(2H)-tetrone] was tested, and the “% Lowering Galactitol Accumulation In Vivo, (%) D” value ([1]; 10 mg/kg/day in diet) was 59% and the inhibition at 1 µM [2] was 0%.

For `CCN1C(=O)CC2(C1=O)C(=O)N(Cc1ccc(Br)cc1F)C(=O)c1ccc(F)cc12` (centres unmarked) [R1=F, R4=CH2 CH3, 2-[(4-bromo-2-fluorophenyl)methyl]-1'-ethyl-6-fluorospiro[isoquinoline-4(1H),3'-pyrrolidine]-1,2',3,5'(2H)-tetrone], the “% lowering dulcitol accumulation in vivo, % D” value ([1]; 0.5 mg/kg in diet) was 65%, the “% lowering dulcitol accumulation in vivo, % D” value ([1]; 1.0 mg/kg in diet) was 84% and the “% lowering dulcitol accumulation in vivo, % N” value ([3]; 0.5 mg/kg in diet) was 19%. For the same compound, the “% lowering dulcitol accumulation in vivo, % N” value ([3]; 1.0 mg/kg in diet) was 74% and the inhibition at 10 µM [2] was 0%.

With `CCN1C(=O)CC2(C1=O)C(=O)N(Cc1ccc(Br)cc1F)C(=O)c1ccccc12` (centres unmarked) [R1=H, R4=CH2 CH3, 2-[(4-bromo-2-fluorophenyl)methyl]-1'-ethylspiro[isoquinoline-4(1H), 3'-pyrrolidine]-1,2',3,5'(2H)-tetrone] the “% lowering dulcitol accumulation in vivo, % D” value ([1]; 0.5 mg/kg in diet) was 56%, the “% lowering dulcitol accumulation in vivo, % D” value ([1]; 0.9 mg/kg in diet) was 73% and the “% lowering dulcitol accumulation in vivo, % N” value ([3]; 0.5 mg/kg in diet) was 37%. The “% lowering dulcitol accumulation in vivo, % N” value ([3]; 0.9 mg/kg in diet) was 65% and the inhibition at 10 µM [2] was 0%.

With `CN1C(=O)CC2(C1=O)C(=O)N(Cc1ccc(Br)cc1F)C(=O)c1ccccc12` (centres unmarked) [R1=H, R4=CH3, 2-[(4-bromo-2-fluorophenyl)methyl]-1'-methylspiro[isoquinoline-4(1H), 3'-pyrrolidine]-1,2',3,5'(2H)-tetrone] the “% lowering dulcitol accumulation in vivo, % D” value ([1]; 0.5 mg/kg in diet) was 61%, the “% lowering dulcitol accumulation in vivo, % D” value ([1]; 1.1 mg/kg in diet) was 75% and the “% lowering dulcitol accumulation in vivo, % D” value ([1]; 10.2 mg/kg in diet) was 94%. For the same compound, the “% lowering dulcitol accumulation in vivo, % L” value [4] was 31%, the “% lowering dulcitol accumulation in vivo, % N” value ([3]; 0.5 mg/kg in diet) was 50% and the “% lowering dulcitol accumulation in vivo, % N” value ([3]; 1.1 mg/kg in diet) was 76%. The “% lowering dulcitol accumulation in vivo, % N” value ([3]; 10.2 mg/kg in diet) was 95% and the inhibition at 10 µM [2] was 0%.

With `CN1C(=O)CC2(C1=O)C(=O)N(Cc1nc3cc(C(F)(F)F)ccc3s1)C(=O)c1ccccc12` (centres unmarked) [R1=H, R4=CH3, R5=CF3, 2-[[5-(trifluoromethyl)-2-benzothiazolyl]methyl]-1'-methylspiro[isoquinoline-4(1H),3'-pyrrolidine]-1,2',3,5'(2H)-tetrone] the “% Lowering Galactitol Accumulation In Vivo, (%) D” value ([1]; 9.5 mg/kg/day in diet) was 100%, the “% Lowering Galactitol Accumulation In Vivo, (%) N” value ([3]; 9.5 mg/kg/day in diet) was 82% and the inhibition at 1 µM [2] was 0%.
